Measurements reported in patent US12150995B2, “IRAK degraders and uses thereof” (Kymera Therapeutics, Inc., priority 2020, dated 2024).

Biological target: T1, IRAK4 (Homo sapiens, UniProt Q9NWZ3)
T1 construct: endogenous in cells; host or cells: OCI-LY10
T1 sequence (Q9NWZ3 1-460): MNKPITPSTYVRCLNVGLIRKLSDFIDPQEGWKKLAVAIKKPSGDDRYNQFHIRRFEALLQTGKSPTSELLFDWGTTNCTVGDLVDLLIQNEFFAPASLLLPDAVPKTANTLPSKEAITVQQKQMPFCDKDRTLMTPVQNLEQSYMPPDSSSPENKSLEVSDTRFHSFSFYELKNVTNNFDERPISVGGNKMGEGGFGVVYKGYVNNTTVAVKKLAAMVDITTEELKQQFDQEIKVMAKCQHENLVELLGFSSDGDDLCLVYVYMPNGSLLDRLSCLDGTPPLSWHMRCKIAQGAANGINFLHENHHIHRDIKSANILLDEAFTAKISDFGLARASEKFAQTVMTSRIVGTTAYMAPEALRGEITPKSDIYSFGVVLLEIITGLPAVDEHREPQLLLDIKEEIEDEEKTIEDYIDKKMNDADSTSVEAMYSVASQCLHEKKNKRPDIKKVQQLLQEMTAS
Assay: IRAK4 MSD Degradation in OCI-LY10
Format: cell-based
Details: OCI-LY10 cells, Meso Scale Discovery, incubated 4 to 24 hours
Procedure: Degradation of IRAK4 in OCI-LY10 was quantitatively measured using Meso Scale Discovery technology. OCI-LY10 cells were seeded in 96-well plates (Corning 3799) with a density of 300,000 cells per well in 100 μL fresh media. Compounds were then added to the assay plates with a final top concentration of 1 to 10 μM in a 1:3 dilution series with total of 8 doses. The assay plates were then incubated for 4 to 24 hours at 37° C. under 5% CO2. The assay plates were then centrifuged for 5 minutes and the cell pellets were treated with 100 μL/well RIPA lysis buffer (Boston BioProducts BP-115D) with proteinase inhibitors. To prepare MSD assay plates (Meso Scale Discovery Catalog number L15XA-3), the plates were coated with 2 μg/mL capture antibody (mouse Anti-IRAK4 antibody [2H9], ab119942) in PBS, at 40 μL/well. The plates were then incubated overnight at 4° C., washed 3 times with 150 μL/well TBST buffer (Cell Signaling Technology, Catalog number 9997S) and blocked with 150 μL/well blocking buffer (Meso Scale Discovery Catalog number R93BA-4). Cell lysates were then added to MSD assay plates and the plates were incubated at room temperature for 1 hour. The plates were then washed 3 times with 150 μL/well TBST buffer and […] primary detection antibody (rabbit Anti-IRAK4 antibody [Y279], from Abcam. Catalog number ab32511, 1 μg/mL). The assay plates were then incubated at room temperature for 1 hour, washed 3 times with 150 μL/well TBST buffer and 254/well secondary detection antibody, SULFO-TAG anti-rabbit antibody were added (anti rabbit antibody from Meso Scale Discovery, Catalog number R32AB-1, 1 μg/mL). The assay plates were then incubated at room temperature for 1 hour, washed 3 times with 150 μL/well TBST buffer, and 150 μL/well MSD reading buffer (Meso Scale Discovery catalog number R92TC-2) was added. The plates were then analyzed by a MSD reader (Meso Scale Discovery, Model Quick Plex SQ 120). The data was then analyzed by software Prism 7.0 from GraphPad and the dose-depended IRAK4 degradation were fit using a three-parameter logistic equation to calculate DC50.
The letter codes for IRAK4 DC50 include: A (<0.01 μM); B (0.01-0.05 μM); C (0.05-0.1 μM); D (0.1-0.2 μM); and E (>0.2 μM).

| SMILES | DC50 [nM] |
| --- | --- |
| COc1cc2nn([C@H]3CC[C@H](CN4CCC(c5ccc6c(N7CCC(=O)NC7=O)cncc6c5)CC4)CC3)cc2cc1NC(=O)c1cncc(C#N)c1 [I-122] | 100 to 200 |
| CC(C)(O)c1cc2nc([C@H]3CC[C@H](C(=O)N4CCC5(CC4)CC(CCNc4cccc6c4C(=O)N(C4CCC(=O)NC4=O)C6=O)C5)CC3)sc2cc1NC(=O)c1cccc(C#N)n1 (some centres unmarked) [I-430] | 100 to 200 |
| COc1cc2nn([C@H]3CC[C@H](CN4CC5(CN(Cc6cccc7c6n(C)c(=O)n7C6CCC(=O)NC6=O)C5)C4)CC3)cc2cc1NC(=O)c1cncc(C#N)c1 (some centres unmarked) [I-244] | 100 to 200 |
| CN(C[C@H]1CC[C@H](n2cc3cc(NC(=O)c4cccc(C(F)(F)F)n4)ncc3n2)CC1)C1CCN(c2cccc3c(N4CCC(=O)NC4=O)cncc23)CC1 [I-79] | > 200 |
| COc1cc2nn([C@H]3CC[C@H](CN4CCN(c5cccc6c(N7CCC(=O)NC7=O)cncc56)CC4)CC3)cc2cc1NC(=O)c1cccc(C(F)(F)F)n1 [I-211] | < 10 |
| Cn1c(=O)n(C2CCC(=O)NC2=O)c2cccc(C3CCN(C[C@H]4CC[C@H](n5cc6cc(NC(=O)c7cccc(C(F)(F)F)n7)c(N7C[C@@H]8C[C@H]7CO8)cc6n5)CC4)CC3)c21 (some centres unmarked) [I-55] | 10 to 50 |
| CN(C[C@H]1CC[C@H](n2cc3cc(NC(=O)c4cccc(C(F)(F)F)n4)c(C(C)(C)O)cc3n2)CC1)C1CCN(c2cccc3c(N4CCC(=O)NC4=O)cncc23)CC1 [I-66] | < 10 |
| CC(C)Nc1c(C(=O)N[C@H]2CC[C@H](CN3CCC(c4cccc5c4n(C)c(=O)n5C4CCC(=O)NC4=O)CC3)CC2)cnc2sc(-c3cncs3)cc12 (some centres unmarked) [I-417] | < 10 |
| Cn1c(=O)n(C2CCC(=O)NC2=O)c2cccc(C3CCN(C[C@H]4CC[C@H](n5cc6cc(NC(=O)c7cccc(C(F)(F)F)n7)c(N7C[C@H]8C[C@@H]7CO8)cc6n5)CC4)CC3)c21 (some centres unmarked) [I-44] | < 10 |
| COc1ccc2c(c1C1CCN(C[C@H]3C[C@H](n4cc5cc(NC(=O)c6cccc(C(F)(F)F)n6)c(Cl)cc5n4)C3)CC1)n(C)c(=O)n2C1CCC(=O)NC1=O (some centres unmarked) [I-145] | 10 to 50 |
| Cn1c(=O)n(C2CCC(=O)NC2=O)c2cccc(C3CCN(C(=O)[C@H]4CC[C@H](n5cc6cc(NC(=O)c7cccc(C(F)(F)F)n7)ncc6n5)CC4)CC3)c21 (some centres unmarked) [I-188] | > 200 |
| COc1cc2nn([C@H]3CC[C@H](CN4CCN(c5cccc6c(N7CCC(=O)NC7=O)cncc56)[C@H](C)C4)CC3)cc2cc1NC(=O)c1cccc(C(F)(F)F)n1 [I-256] | < 10 |
| CC(=O)c1cc2nn([C@H]3CC[C@H](CN4CCN(c5cccc6c5n(C)c(=O)n6C5CCC(=O)NC5=O)CC4)CC3)cc2cc1NC(=O)c1cccc(C(F)(F)F)n1 (some centres unmarked) [I-412] | < 10 |
| CN(C[C@H]1CC[C@H](n2cc3cc(NC(=O)c4cccc(C(F)(F)F)n4)ncc3n2)CC1)C1CCN(c2cccc3c2n(C)c(=O)n3C2CCC(=O)NC2=O)CC1 (some centres unmarked) [I-238] | < 10 |
| Cc1cccc(C(=O)Nc2cc3sc([C@H]4CC[C@H](C(=O)N5CC6(CC(CCNc7cccc8c7C(=O)N(C7CCC(=O)NC7=O)C8=O)C6)C5)CC4)nc3cc2C(C)(C)O)n1 (some centres unmarked) [I-469] | 100 to 200 |
| Cn1c(=O)n(C2CCC(=O)NC2=O)c2cccc(N3CCN(C[C@H]4CC[C@H](n5cc6cc(NC(=O)c7cccc(C(F)(F)F)n7)ccc6n5)CC4)CC3)c21 (some centres unmarked) [I-209] | < 10 |
| CN(C[C@H]1CC[C@H](n2cc3cc(NC(=O)c4cccc(C(F)(F)F)n4)ccc3n2)CC1)C1CCN(c2cccc3c2n(C)c(=O)n3C2CCC(=O)NC2=O)CC1 (some centres unmarked) [I-58] | < 10 |
| CC(C)Nc1cc(-c2ccc3cc(C#N)cnn23)ncc1C(=O)N[C@H]1CC[C@H](CN(C)C2CCN(c3cccc4c3n(C)c(=O)n4C3CCC(=O)NC3=O)CC2)CC1 (some centres unmarked) [I-179] | < 10 |
| Cn1c(=O)n(C2CCC(=O)NC2=O)c2cccc(C3CCN(C[C@H]4CC[C@H](n5cc6cc(NC(=O)c7cccc(C(F)(F)F)n7)ncc6n5)CC4)CC3)c21 (some centres unmarked) [I-62] | < 10 |

| SMILES | DC50 [nM] |
| --- | --- |
| CC(C)Nc1cc(-c2ccc3cc(C#N)cnn23)ncc1C(=O)N[C@H]1CC[C@H](CN2CCN(c3cccc4c3n(C)c(=O)n4C3CCC(=O)NC3=O)CC2)CC1 (some centres unmarked) [I-362] | < 10 |
| O=C1CCC(N2C(=O)c3cccc(NCCC4CC5(C4)CN(C[C@H]4CC[C@H](c6nc7cc(C(=O)O)c(NC(=O)c8cccc(C(F)(F)F)n8)cc7s6)CC4)C5)c3C2=O)C(=O)N1 (some centres unmarked) [I-485] | 10 to 50 |
| Cn1c(=O)n(C2CCC(=O)NC2=O)c2ccc(C3CCN(C[C@H]4CC[C@H](n5cc6cc(NC(=O)c7cccc(C(F)(F)F)n7)ccc6n5)CC4)CC3)c(Cl)c21 (some centres unmarked) [I-180] | > 200 |
| CN(CCCO[C@H]1C[C@H](Nc2cccc3c2C(=O)N(C2CCC(=O)NC2=O)C3=O)C1)C[C@H]1CC[C@H](n2cc3cc(NC(=O)c4cccc(C(F)(F)F)n4)ccc3n2)CC1 (some centres unmarked) [I-354] | > 200 |
| Cn1c(=O)n(C2CCC(=O)NC2=O)c2cccc(C3CCN(C[C@H]4CC[C@H](n5cc6cc(NC(=O)c7cccc(C(F)(F)F)n7)c(C(F)(F)F)cc6n5)CC4)CC3)c21 (some centres unmarked) [I-76] | 10 to 50 |
| COc1cc2nn([C@H]3CC[C@H](CN(C)C4CCN(c5c(C)ccc6c5n(C)c(=O)n6C5CCC(=O)NC5=O)CC4)CC3)cc2cc1NC(=O)c1cccc(C(F)(F)F)n1 (some centres unmarked) [I-40] | 10 to 50 |
| Cc1ccc2c(c1C1CCN(C[C@H]3CC[C@H](n4cc5cc(NC(=O)c6cccc(C#N)n6)ccc5n4)CC3)CC1)n(C)c(=O)n2C1CCC(=O)NC1=O (some centres unmarked) [I-323] | < 10 |
| Cn1c(=O)n(C2CCC(=O)NC2=O)c2cccc(N3CCCN(C[C@H]4CC[C@H](n5cc6cc(NC(=O)c7cccc(C(F)(F)F)n7)ccc6n5)CC4)CC3)c21 (some centres unmarked) [I-328] | 10 to 50 |
| Cn1c(=O)n(C2CCC(=O)NC2=O)c2cccc(C3CCN(C[C@H]4CC[C@H](n5cc6cc(NC(=O)c7cccc(C(F)(F)F)n7)c(Cl)cc6n5)CC4)CC3)c21 (some centres unmarked) [I-24] | 10 to 50 |
| COc1ccc2c(c1C1CCN(C[C@H]3CC[C@H](n4cc5cc(NC(=O)c6cccc(C(F)(F)F)n6)ncc5n4)CC3)CC1)n(C)c(=O)n2C1CCC(=O)NC1=O (stereo partly drawn) [I-104, N-[2-[4-[[4-[1-[(3S)-2,6-dioxo-3-piperidyl]-5-methoxy-3-methyl-2-oxo-benzimidazol-4-yl]-1-piperidyl]methyl]cyclohexyl]pyrazolo[3,4-c]pyridin-5-yl]-6-(trifluoromethyl)pyridine-2-carboxamide] | < 10 |
| CN(C[C@H]1C[C@H](n2cc3cc(NC(=O)c4cccc(C(F)(F)F)n4)c(C(F)F)cc3n2)C1)C1CCN(c2cccc3c2n(C)c(=O)n3C2CCC(=O)NC2=O)CC1 (some centres unmarked) [I-139] | 10 to 50 |
| CC(C)Nc1cc(-n2ccc3cc(C(F)(F)F)cnc32)ncc1C(=O)N[C@H]1CC[C@H](CN2CCN(c3cccc4c3n(C)c(=O)n4C3CCC(=O)NC3=O)CC2)CC1 (some centres unmarked) [I-369] | 100 to 200 |
| O=C1CCN(c2cncc3cc(C4CCN(C[C@H]5CC[C@H](n6cc7cc(NC(=O)c8cccc(C(F)(F)F)n8)ncc7n6)CC5)CC4)ccc23)C(=O)N1 [I-318] | > 200 |
| COc1cc2nc([C@H]3CC[C@H](CN4CCC(c5cccc6c5n(C)c(=O)n6C5CCC(=O)NC5=O)CC4)CC3)sc2cc1NC(=O)c1cncc(Cl)c1 (some centres unmarked) [I-182] | < 10 |
| Cn1c(=O)n(C2CCC(=O)NC2=O)c2cccc(C3CCN(C[C@H]4CC[C@H](n5cc6cc(NC(=O)c7nc(C(F)(F)F)cs7)ccc6n5)CC4)CC3)c21 (some centres unmarked) [I-215] | < 10 |
| CN(C)c1cc2nn([C@H]3CC[C@H](CN4CCC(c5cccc6c5n(C)c(=O)n6C5CCC(=O)NC5=O)CC4)CC3)cc2cc1NC(=O)c1cccc(C(F)(F)F)n1 (some centres unmarked) [I-107] | < 10 |
| CN(CCCN(C)[C@H]1C[C@H](Nc2cccc3c2C(=O)N(C2CCC(=O)NC2=O)C3=O)C1)C[C@H]1CC[C@H](n2cc3cc(NC(=O)c4cccc(C(F)(F)F)n4)c(C(C)(C)O)cc3n2)CC1 (some centres unmarked) [I-263] | 10 to 50 |
| COc1cc2nn([C@H]3CC[C@H](CN4CCC(c5c(C)ccc6c5n(C)c(=O)n6C5CCC(=O)NC5=O)CC4)CC3)cc2cc1NC(=O)c1cncc(C(F)(F)F)c1 (some centres unmarked) [I-108] | < 10 |
| COc1cc2nc([C@H]3CC[C@H](CN4CCC(c5cccc6c5n(C)c(=O)n6C5CCC(=O)NC5=O)CC4)CC3)sc2cc1NC(=O)c1cncc(C#N)c1 (some centres unmarked) [I-185] | < 10 |
